The record followed here is patent US7807368B2, “Cyclin-dependent kinase inhibitors as targets for opiod growth factor treatment” (priority 2006, dated 2010).

In experiment [1] the test system is Cdk2 kinase activity. The experiment can be described thus: Immunoprecipitation and H1 kinase assay (Cdk2 kinase activity) in BxPC-3 cells. Format: cell-based, human. Here is the method:
To quantify expression levels or kinase activity, the optical density of each band was determined by densitometry and analyzed by QuickOne (Bio-Rad Laboratories). Each value was normalized to β-actin from the same blot. To report the changes due to OGF treatment, we calculated the fold increase by dividing the normalized value from the OGF treated samples by the normalized value of control samples at each time point; thus, increases due to OGF have values greater than one, and decreases due to OGF have values less than one. For all Western blot analyses, 3 or more independent experiments were performed.
To immunoprecipitate protein complexes, cell extracts were prepared as follows: 2×10^6 cells per sample were rinsed in cold PBS followed by lysis in 200 μl immunoprecipitation buffer (1% NP-40, 10 mM HEPES (pH 7.5), 200 mM NaCl, 5 mM EDTA, 50 mM NaF, 0.2 mM sodium orthovanidate, 1 mM phenylmethyl sulfonyl fluoride, 2 mM dithiothreitol), 1× Halt™ protease inhibitorcocktail (Pierce, Rockford, Ill.)). For each immunoprecipitation reaction mixture, a total of 500 μg of protein extract was used. To each sample, 50 μl of protein A beads (Santa Cruz Biotechnology) were added and incubated at 40° C. for 30 min with rotation. Beads were removed by centrifugation at 14000 rpm for 15 s. The lysates were then subjected to immunoprecipitation using 10 μl of polyclonal antibody against Cdk2 and incubated at 40° C. for 1.5 hours with rotation, followed by addition of 20 μl of protein A beads as the immune complex binding agent.
Samples were further incubated at 40 C for 1 hour with rotation. Beads were pelleted by centrifugation at 14000 rpm for 15 s, washed three times with 500 μl ice-cold immunoprecipitation wash buffer (1% NP-40, 50 mM HEPES, 150 mM NaCl, 1 mM EDTA, 1 mM dithiothreitol), and followed by two washes with ice-cold H1 kinase buffer (50 mM HEPES (pH 7.5), 10 mM MgCl2, 10 mM MnCl2, 1 mM dithiothreitol). Immunoprecipitates were incubated with 10 μCi γ^32P-ATP, and 1 μg of histone H1 (Roche) as the substrate for Cdk2. After incubation for 30 min at 30° C., with occasional mixing, the reaction was stopped by the addition of 2× sample loading buffer (Santa Cruz Biotechnology). Proteins were separated by a 12% SDS-PAGE gel, and the Cdk2 kinase activity pattern was visualized by autoradiography of phosphorylated H1.

Experiment [2] deals with p21. The experiment can be described thus: Western blot of p21 in Capan-2 cells. The format is cell-based, human. To be noted: 3 hours. Here is the method: Human pancreatic cancer cell lines BxPC-3, PANC-1, and Capan-2 were obtained from the American Type Culture Collection (Manassas, Va.), and cultured in RPMI, Dulbecco's Modified Medium, or McCoy's 5A medium, respectively. All media were supplemented with 10% fetal bovine serum, 1.2% sodium bicarbonate, and 0.25% antibiotics (5000 units/ml penicillin, 5 μg/ml streptomycin and 10 μg/ml neomycin). OGF was purchased from Sigma-Aldrich (St. Louis, Mo.), dissolved in sterile water, and used at a final concentration of 10^−6 M.
Synchronized cells (2×10^6) from each treatment were solubilized in 200 μl RIPA buffer (1×PBS, 10 μM IGEPAL, 1 mg/ml SDS, 5 mg/ml deoxycholic acid), containing protease and phosphatase inhibitors (2 μg/ml aprotinin, 3 mg/ml phenylmethyl sulfonyl fluoride, 1 mM sodium orthovanidate, 1 μM okadaic acid). Total protein concentrations were measured using the DC protein assay kit (Bio-Rad Laboratories, Hercules, Calif.). Equal amounts of protein (40 μg) were subjected to 10% SDS-PAGE followed by transfer of proteins onto polyvinylidene difluoride (Millipore, Billerica, Mass.) using standard protocols.
The p21-targeted siRNAs were obtained from Santa Cruz Biotechnology, and negative control siRNAs were purchased from Ambion (Ambion, Inc., Austin, Tex.). For transfection, 2×10^5 cells per well were seeded in 6-well plates containing 1 ml of media without antibiotics. […]

[Met^5]-enkephalin [OGF]: in experiment [1] (OGF for 15, 18 or 21 hours (FIG. 5)), the “Cdk2 kinase activity vs control cells at each respective time point” value was “significantly reduced”. Further, the “decrease in Cdk2 kinase activity compared to control” value was determined as 78% in experiment [1] (OGF for 15 hours), 46% in experiment [1] (OGF for 18 hours) and 82% in experiment [1] (OGF for 21 hours). In experiment [2], the “p21 expression relative to control cultures” value was “increased p21 expression”.
